Laboratory results as given in PubChem BioAssay (NCI).
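Where inhibition never reached the appropriate level, the endpoint shown equals the highest concentration tested. Otherwise, values were interpolated linearly from a five-concentration, 48-hour dose response in 96-well plates. GI50 is the concentration that inhibits growth by half. TGI: total growth inhibition.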

Assays:
Test in all cases: NCI anticancer screen, dose series, 48 h
[1] = tested on: HOP-62 NSCLC
[2] = tested on: NCI-H460 lung
[3] = tested on: NCI-H522 lung
[4] = tested on: RXF 393 renal
[5] = tested on: SNB-19 CNS
[6] = tested on: SR leukemia
[7] = tested on: UACC-62 melanoma
[8] = tested on: CCRF-CEM leukemia
[9] = tested on: IGROV1 ovarian
[10] = tested on: PC-3 prostate

For Cc1cn(Cc2ccc(C34CC5CC(CC(C5)C3)C4)c(O)c2)c(=O)[nH]c1=O, the GI50 [1] was 12.9 µM, the TGI [1] was 25.6 µM and the GI50 [2] was 12.6 µM. It also gave a TGI [2] of 42.3 µM, a GI50 [3] of 8.04 µM and a TGI [3] of 24.2 µM. It also gave a GI50 [4] of 1.82 µM, a TGI [4] of 7.2 µM and a GI50 [5] of 13.9 µM. It also gave a TGI [5] of 31.1 µM, a GI50 [6] of 3.16 µM and a TGI [6] of 13.5 µM. The GI50 [7] was 7.34 µM and the TGI [7] was 20.4 µM.
For CN1CCN(C(=O)COc2ccc(/C=C3\CC4C5CC=C6CC(Cl)CCC6(C)C5CCC4(C)C3=O)cc2)CC1 (centres undefined), the GI50 [8] was 3.94 µM, the TGI [8] was > 100 µM and the GI50 [1] was 36.4 µM. The TGI [1] was > 100 µM, the GI50 [9] was > 100 µM and the TGI [9] was > 100 µM. The GI50 [3] was > 100 µM, the TGI [3] was > 100 µM and the GI50 [10] was > 100 µM. For the same compound, the TGI [10] was > 100 µM, the GI50 [4] was 14.3 µM and the TGI [4] was > 100 µM. For the same compound, the GI50 [5] was > 100 µM, the TGI [5] was > 100 µM and the GI50 [7] was > 100 µM. The TGI [7] was > 100 µM.
With O=C1C2C3CC(C4C5C=CC(C5)C34)C2C2C3CC(C12)C1C2C=CC(C2)C31 (centres undefined) the TGI [8] was > 100 µM, the TGI [1] was > 100 µM and the TGI [9] was > 100 µM. The TGI [2] was > 100 µM, the TGI [3] was > 100 µM and the TGI [4] was > 100 µM. The TGI [5] was > 100 µM, the TGI [6] was > 100 µM and the TGI [7] was > 100 µM.
With O=C(/C=C\c1cccc2ccccc12)c1ccc(Cl)cc1Cl the TGI [8] was 42.1 µM, the TGI [1] was > 100 µM and the TGI [9] was > 100 µM. The TGI [2] was 51.6 µM, the TGI [3] was 35.1 µM and the TGI [5] was 72.9 µM. The TGI [7] was 34 µM.
CCCCCCCC/C=C/CCCCCCCC1=NC(C)(C)CN1CCO gave a GI50 [8] of 2.22 µM, a TGI [8] of 6.75 µM and a GI50 [1] of 1.83 µM. For the same compound, the TGI [1] was 3.29 µM, the GI50 [9] was 1.51 µM and the TGI [9] was 2.9 µM. The GI50 [2] was 1.85 µM, the TGI [2] was 3.42 µM and the GI50 [3] was 1.81 µM. For the same compound, the TGI [3] was 3.58 µM, the GI50 [10] was 2.19 µM and the TGI [10] was 9.38 µM. The GI50 [4] was 2.02 µM, the TGI [4] was 4.37 µM and the GI50 [5] was 6.26 µM. The TGI [5] was 21.5 µM, the GI50 [7] was 1.72 µM and the TGI [7] was 3.42 µM.
With COC1(OC)C2(Cl)C(Cl)=C(Cl)C1(Cl)C1C2C2CC1(C(=O)O)c1ccccc12 (centres undefined) the TGI [8] was 27 µM, the TGI [1] was 62.8 µM and the TGI [9] was 69.5 µM. For the same compound, the TGI [2] was 47.8 µM, the TGI [5] was > 100 µM and the TGI [6] was 42.2 µM. It also gave a TGI [7] of 34.8 µM.
For COC1OC2COC(C)(C)OC2C(OC(C)=O)C1NC(=O)N(CCCl)N=O (centres undefined), the TGI [8] was > 100 µM, the TGI [1] was > 100 µM and the TGI [9] was > 100 µM. For the same compound, the TGI [2] was > 100 µM, the TGI [3] was 67.1 µM and the TGI [4] was > 100 µM. For the same compound, the TGI [5] was > 100 µM and the TGI [7] was > 100 µM.
With CC(=O)[C@H]1CCC2[C@@H]3CC=C4C[C@@H]([O-])CC[C@]4(C)C3CC[C@@]21C.CC(=O)[C@H]1CCC2[C@@H]3CC=C4C[C@@H]([O-])CC[C@]4(C)C3CC[C@@]21C.CC(=O)[CH-]C(=O)c1ccccc1.CC(=O)[CH-]C(=O)c1ccccc1.Cl.[Ti+4] (some centres undefined) the GI50 [8] was 10.6 µM, the TGI [8] was > 100 µM and the GI50 [1] was 24.6 µM. The TGI [1] was 67.6 µM, the GI50 [9] was 25.9 µM and the TGI [9] was 87.1 µM. The GI50 [2] was 13.9 µM, the TGI [2] was 52.6 µM and the GI50 [3] was 20.3 µM. For the same compound, the TGI [3] was 66.5 µM, the GI50 [4] was 27.1 µM and the TGI [4] was > 100 µM. The GI50 [7] was 15.8 µM and the TGI [7] was 56.9 µM.
In the case of S=c1ncc2c([nH]1)C1c3ccccc3C2c2ccccc21, the TGI [8] is reported as > 100 µM, the TGI [1] is reported as > 100 µM and the TGI [9] is reported as > 100 µM. The TGI [2] was > 100 µM, the TGI [3] was > 100 µM and the TGI [4] was > 100 µM. For the same compound, the TGI [5] was > 100 µM, the TGI [6] was > 100 µM and the TGI [7] was > 100 µM.
For C=CCC(N[C@@H](CO)c1ccccc1)c1cn(C(=O)OCC)c2ccccc12 (some centres undefined), the GI50 [8] was 19.2 µM, the TGI [8] was 56.7 µM and the GI50 [1] was 20.4 µM. For the same compound, the TGI [1] was 45.8 µM, the GI50 [9] was 23.1 µM and the TGI [9] was > 100 µM. It also gave a GI50 [2] of 26.2 µM, a TGI [2] of 70.1 µM and a GI50 [3] of 21.9 µM. For the same compound, the TGI [3] was 46.8 µM, the GI50 [10] was 22.3 µM and the TGI [10] was > 100 µM. For the same compound, the GI50 [4] was 22.8 µM, the TGI [4] was 84.2 µM and the GI50 [7] was 30.4 µM. For the same compound, the TGI [7] was 98.4 µM.
O=C1c2ccccc2-c2c1c1ccccc1c(=O)n2CCCNCCn1c2c(c3ccccc3c1=O)C(=O)c1ccccc1-2 gave a GI50 [1] of 9.69 µM, a TGI [1] of 25.3 µM and a GI50 [9] of 2.63 µM. The TGI [9] was 32.2 µM, the GI50 [2] was 3.02 µM and the TGI [2] was 17.6 µM. For the same compound, the GI50 [3] was 14.6 µM, the TGI [3] was 48.1 µM and the GI50 [10] was 2.43 µM. It also gave a TGI [10] of 10.5 µM, a GI50 [4] of 2.29 µM and a TGI [4] of 13.9 µM. For the same compound, the GI50 [5] was 2.48 µM, the TGI [5] was 11.6 µM and the GI50 [7] was 5.04 µM. For the same compound, the TGI [7] was 19.3 µM.
For Nc1c(Cl)ncnc1NCCCCCCCCCCCCNc1ncnc(Cl)c1N, the TGI [1] was 6.82 µM, the TGI [9] was > 100 µM and the TGI [2] was 10.1 µM. The TGI [4] was 8.01 µM, the TGI [5] was > 100 µM and the TGI [6] was 5.16 µM. For the same compound, the TGI [7] was 13.6 µM.
CN(/N=C\c1ccnc2ccccc12)c1ccc([N+](=O)[O-])cc1 was tested, and the TGI [8] was 82.5 µM, the TGI [1] was > 100 µM and the TGI [9] was > 100 µM. For the same compound, the TGI [5] was > 100 µM and the TGI [7] was > 100 µM.
For CC(=O)[CH-]C(=O)c1ccccc1.CC(=O)[CH-]C(=O)c1ccccc1.CC(=O)[CH-]C(=O)c1ccccc1.[Nd+3].[OH3+], the GI50 [8] was 9.7 µM, the TGI [8] was > 100 µM and the GI50 [1] was 31.9 µM. For the same compound, the TGI [1] was > 100 µM, the GI50 [9] was 97.9 µM and the TGI [9] was > 100 µM. For the same compound, the GI50 [2] was 42.8 µM, the TGI [2] was > 100 µM and the GI50 [3] was 12.1 µM. The TGI [3] was > 100 µM, the GI50 [5] was > 100 µM and the TGI [5] was > 100 µM. The GI50 [7] was 45.5 µM and the TGI [7] was > 100 µM.
With COc1cc(/C=N/N=C(\N)NO)c(Cl)cc1O the TGI [8] was > 100 µM, the TGI [9] was > 100 µM and the TGI [3] was > 100 µM. The TGI [4] was > 100 µM, the TGI [5] was > 100 µM and the TGI [7] was > 100 µM.
With NC1=NN(c2ccccc2)C(=O)C1C(=O)C(=O)Nc1ccc(Cl)c(Cl)c1 (centres undefined) the TGI [8] was > 100 µM, the TGI [1] was > 100 µM and the TGI [9] was > 100 µM. The TGI [2] was > 100 µM, the TGI [3] was > 100 µM and the TGI [4] was > 100 µM. For the same compound, the TGI [5] was > 100 µM, the TGI [6] was > 100 µM and the TGI [7] was > 100 µM.
For COC(=O)[C@@]12CC(C(C)C)[C@H]3CC(C(=O)C=C1OC)[C@H]32 (some centres undefined), the TGI [8] was > 100 µM, the TGI [1] was > 100 µM and the TGI [9] was > 100 µM. The TGI [2] was > 100 µM, the TGI [4] was > 100 µM and the TGI [5] was > 100 µM. The TGI [7] was > 100 µM.
In the case of COc1ccc(OC)c(/C=N/N=C(\N)NO)c1, the TGI [8] is reported as > 100 µM, the TGI [1] is reported as > 100 µM and the TGI [9] is reported as > 100 µM. The TGI [2] was > 100 µM, the TGI [3] was 35 µM and the TGI [4] was > 100 µM. For the same compound, the TGI [5] was > 100 µM, the TGI [6] was > 100 µM and the TGI [7] was 26.9 µM.
Cc1cc(=O)n(-c2cc3cccccc-3n2)[nH]1 was tested, and the TGI [8] was > 100 µM, the TGI [1] was > 100 µM and the TGI [9] was 8.45 µM. The TGI [2] was 16.1 µM, the TGI [3] was 6.86 µM and the TGI [4] was 11.2 µM. The TGI [5] was > 100 µM and the TGI [7] was 7.61 µM.
